Measurements as given in US20260000708A1, “Copper Hydrogel Beads as a Diet Supplement” (Texas Tech University System, priority 2021, published 2026).

System: Salmonella
Assay: Time-release formulation compared to copper sulfate alone against Salmonella cells in vitro
Type: cell-based
Details: after application (FIG. 3)

O=S(=O)([O-])[O-].[Cu+2] [copper sulfate]
Duration of effectiveness against Salmonella: only effective for a short time
